Assay results as given in paper PMC9106035, “Synthesis, X-ray Structure and Biological Studies of New Self-Assembled Cu(II) Complexes Derived from s-Triazine Schiff Base Ligand” (Molecules, 2022).

Assays:
[1] = DPPH radical scavenging assay; type: biochemical
Protocol: The studied Cu(II) complexes and the free ligands were assessed for their antioxidant activity levels using an α,α-diphenyl-β-picrylhydrazyl (DPPH) scavenging assay, and the results are given in Table 7. […] The results indicated better antioxidant activity for DMAT than for DMOHT, indicating the effect of the substituent at the phenyl moiety on the antioxidant activity level of the free ligand. […] On the other hand, the Cu(II) complexes have improved levels of antioxidant activity compared to the free ligands.
Method S3 DPPH Radical Scavenging Activity:
Freshly prepared (0.004 %w/v) methanol solution of 2,2-diphenyl-1-pi crylhydrazyl (DPPH) radical was prepared and stored at 10 °C in dark place. A methanolic solution of the test compound was prepared using the same procedure. A 40 uL aliquot of the methanol solution was added to 3mL of DPPH solution. Absorbance measurements were recorded immediately with a UV-visible spectrophotometer (Milton Roy, Spectronic 1201). The decrease in absorbance at 515 nm was determined continuously, with data being recorded at 1 min intervals until the absorbance stabilized (16 min). The absorbance of the DPPH radical without antioxidant (control) and the reference compound ascorbic acid were also measured.
All the determinations were performed in three replicates and averaged. The percentage inhibition (PI) of the DPPH radical was calculated according to the […]
PI = [{(AC- AT)/ AC} x 100] (1)
Where AC = Absorbance of the control at t = 0 min and AT = absorbance of the sample+DPPH at t = 16 min. The 50% inhibitory concentration (IC50), the concentration required t o inhibit DPPH radical by 50%, was estimated from graphic plots of the dose respons e curve.

[2] = system: lung carcinoma A-549 cell line; experiment: Anticancer activity, MTT viability assay; type: cell-based; conditions: for Inhibitory % / Viability %: A-549, Table S8
Protocol: The studied compounds were examined for their anticancer activity against the lung carcinoma A-549 cell line.
(§1) Method S4 Evaluation of Cytotoxic activity
(§2) The cells were propagated in Dulbecco’s modified Eagle’s medium (DMEM) supplemented with 10% heat-inactivated fetal bovine serum, 1 % L-glutamine, HEPES buffer and 50µg/mL Gentamycin. All cells were maintained at 37 °C in a humidified atmosphere with 5% CO2 and were subcultured tw o times a week.
(§3) Cytotoxicity evaluation using viability assay
(§4) For cytotoxicity assay, the cells were seeded in 96-well plate at a cell concentration of 1×10^4 cells per well in 100µl of growth medium. Fresh medium containing different concentrations of the test sample was added after 24 h of seeding. Serial two-fold dilutions of the tested chemical compound were added to confluent cell monolayers dispensed into 96-well, flat-bottomed microtiter plates (Falcon, NJ, USA) using a multichannel pipette. The microtiter plates were incubated at 37 °C in a humidified incubator with 5% CO2 for a period of 24 h. Three wells were used for each concentration of the test sample. Control cells were incubated without test sample and with or without DMSO. The little percentage of DMSO present in the […]
(§5) cells for at 37°C, for 24 h, the viabl e cells yield was determined by the MTT test.
(§6) Briefly, the media was removed from the 96 well plate and replaced with 100 µL of fresh culture DMEM m edium without phenol red then 10 µL of the 12 mM MTT stock solution (5 mg of MTT in 1 mL of PBS) to each well including the untreated controls. The 96 well plates were then incubated at 37°C and 5% CO2 for 4 hours. An 85 µL aliquot of the media was removed from t he wells, and 50 µL of DMSO was added to each well and mixed thoroughly with the pipette and incubated at 37°C for 10 min. Then, the optical density was measured at 590 nm with the microplate reader (SunRise, TECAN, Inc, USA) to determine the number of viable cells and the percentage of viability was calculat ed as [(ODt/ODc)]x100% where ODt i s the mean optical density of wells treated with the tested s ample and ODc is the mean optical density of untreated cells. The relation between surviving cells and drug concentration is plotted to get the survival curve of each tumor cell line after treatment with the specified compound. The 50% inhibitory concentration (IC50), the concentration required to cause t oxic effects in 50% of intact cells, was estimated from graphic plots of the dose response curve for each conc. using Graphpad Prism software (San Diego, […]

[3] = system: normal human lung fibroblast MRC-5 cells; experiment: Cytotoxic activity on normal cells, MTT viability assay; type: cell-based; conditions: for Inhibitory % / Viability %: MRC-5, Table S13
Protocol: In this regard, the selectivity index (SI) was calculated as the ratio of cytotoxic effect on the normal cell line to the cytotoxic effect on the cancer cell line.
as §1, §2, §3, §4, §5, §6

In the case of `CC(=NNc1nc(N2CCOCC2)nc(N2CCOCC2)n1)c1ccccc1[O-].CC(=O)[O-].[Cu+2]` [Complex 2, [Cu(DMOT)(CH3COO)]], the “DPPH Scavenging %” value ([1]; Conc. 2.5 μg/mL) is reported as 9.39%, the “DPPH Scavenging %” value ([1]; Conc. 5 μg/mL) is reported as 17.66% and the “DPPH Scavenging %” value ([1]; Conc. 10 μg/mL) is reported as 36.52%. The “DPPH Scavenging %” value ([1]; Conc. 20 μg/mL) was 49.08%, the “DPPH Scavenging %” value ([1]; Conc. 40 μg/mL) was 67.84% and the “DPPH Scavenging %” value ([1]; Conc. 80 μg/mL) was 78.62%. For the same compound, the “DPPH Scavenging %” value ([1]; Conc. 160 μg/mL) was 83.14%, the “DPPH Scavenging %” value ([1]; Conc. 320 μg/mL) was 88.03% and the “DPPH Scavenging %” value ([1]; Conc. 640 μg/mL) was 92.15%. For the same compound, the “DPPH Scavenging %” value ([1]; Conc. 1280 μg/mL) was 94.54%, the “IC50 (DPPH scavenging)” value ([1]; antioxidant activity) was 20.93 ± 0.91 µg/mL and the Inhibitory % ([2]; sample conc. 1.9 µM) was 0%. For the same compound, the Viability % ([2]; sample conc. 1.9 µM) was 100%, the Inhibitory % ([2]; sample conc. 3.8 µM) was 2.84% and the Viability % ([2]; sample conc. 3.8 µM) was 97.16%. The Inhibitory % ([2]; sample conc. 7.5 µM) was 10.59%, the Viability % ([2]; sample conc. 7.5 µM) was 89.41% and the Inhibitory % ([2]; sample conc. 15.0 µM) was 21.88%. It also gave a Viability % ([2]; sample conc. 15.0 µM) of 78.12%, an Inhibitory % ([2]; sample conc. 29.9 µM) of 40.57% and a Viability % ([2]; sample conc. 29.9 µM) of 59.43%. The Inhibitory % ([2]; sample conc. 60.0 µM) was 58.63%, the Viability % ([2]; sample conc. 60.0 µM) was 41.37% and the Inhibitory % ([2]; sample conc. 120.0 µM) was 71.3%. The Viability % ([2]; sample conc. 120.0 µM) was 28.70%, the Inhibitory % ([2]; sample conc. 239.9 µM) was 83.57% and the Viability % ([2]; sample conc. 239.9 µM) was 16.43%. The Inhibitory % ([2]; sample conc. 479.8 µM) was 92.15%, the Viability % ([2]; sample conc. 479.8 µM) was 7.85% and the Inhibitory % ([2]; sample conc. 959.6 µM) was 96.38%. The Viability % ([2]; sample conc. 959.6 µM) was 3.62%, the “SI = CC50/IC50” value ([2]; CC50 (MRC-5) / IC50 (A-549)) was 0.72 and the Inhibitory % ([3]; sample conc. 1.9 µM) was 0%. It also gave a Viability % ([3]; sample conc. 1.9 µM) of 100%, an Inhibitory % ([3]; sample conc. 3.8 µM) of 0% and a Viability % ([3]; sample conc. 3.8 µM) of 100%. For the same compound, the Inhibitory % ([3]; sample conc. 7.5 µM) was 1.29%, the Viability % ([3]; sample conc. 7.5 µM) was 98.71% and the Inhibitory % ([3]; sample conc. 15.0 µM) was 7.13%. For the same compound, the Viability % ([3]; sample conc. 15.0 µM) was 92.87%, the Inhibitory % ([3]; sample conc. 29.9 µM) was 13.76% and the Viability % ([3]; sample conc. 29.9 µM) was 86.24%. It also gave an Inhibitory % ([3]; sample conc. 60.0 µM) of 32.82%, a Viability % ([3]; sample conc. 60.0 µM) of 67.18% and an Inhibitory % ([3]; sample conc. 120.0 µM) of 57.65%. It also gave a Viability % ([3]; sample conc. 120.0 µM) of 42.35%, an Inhibitory % ([3]; sample conc. 239.9 µM) of 72.02% and a Viability % ([3]; sample conc. 239.9 µM) of 27.98%. For the same compound, the Inhibitory % ([3]; sample conc. 479.8 µM) was 84.79%, the Viability % ([3]; sample conc. 479.8 µM) was 15.21% and the Inhibitory % ([3]; sample conc. 959.6 µM) was 94.26%. It also gave a Viability % ([3]; sample conc. 959.6 µM) of 5.74% and a CC50 ([3]; MRC-5 cells, 24 h, MTT) of 101 µM.
